Laboratory results from patent US10080741B2, “Isoxazole derivatives as FXR agonists and methods of use thereof” (Enanta Pharmaceuticals, Inc., priority 2016, dated 2018).

Biological target: T1, human FXR (NR1H4) (Homo sapiens, UniProt Q96RI1)
T1 construct: host or cells: CHO (Chinese hamster ovary) reporter cells
T1 sequence (Q96RI1 1-486): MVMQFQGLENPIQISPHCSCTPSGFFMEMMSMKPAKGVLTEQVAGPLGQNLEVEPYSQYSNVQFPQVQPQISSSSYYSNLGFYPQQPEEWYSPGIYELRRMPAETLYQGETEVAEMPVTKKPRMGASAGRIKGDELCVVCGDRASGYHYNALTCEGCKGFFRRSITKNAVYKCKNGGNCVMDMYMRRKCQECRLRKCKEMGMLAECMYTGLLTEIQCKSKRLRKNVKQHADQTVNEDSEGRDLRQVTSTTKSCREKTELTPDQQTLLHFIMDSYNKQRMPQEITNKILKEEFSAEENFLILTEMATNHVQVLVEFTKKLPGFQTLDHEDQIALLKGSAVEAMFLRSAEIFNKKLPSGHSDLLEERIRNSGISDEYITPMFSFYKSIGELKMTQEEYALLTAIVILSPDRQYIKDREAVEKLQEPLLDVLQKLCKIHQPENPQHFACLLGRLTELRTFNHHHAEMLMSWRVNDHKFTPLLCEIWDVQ
Experiment: Human FXR (NR1H4) Assay, luciferase reporter in CHO cells (Indigo Bioscience kit IB00601)
Format: cell-based
Conditions: for EC50: CHO cells expressing human NR1H4, 22 hours incubation, potency ranges; for Efficacy (%): efficacy normalized to CDCA set as 100%
Excerpt: Human FXR (NR1H4) Assay Determination of a ligand mediated Gal4 promoter driven transactivation to quantify ligand binding mediated activation of FXR. FXR Reporter Assay kit purchased from Indigo Bioscience (Catalogue number: IB00601) to determine the potency and efficacy of compound developed by Enanta that can induce FXR activation. The principle application of this reporter assay system is to quantify functional activity of human FXR. The assay utilizes non-human mammalian cells, CHO (Chinese hamster ovary) cells engineered to express human NR1H4 protein (referred to as FXR). Reporter cells also incorporate the cDNA encoding beetle luciferase which catalyzes the substrates and yields photon emission. Luminescence intensity of the reaction is quantified using a plate-reading luminometer, Envision. Reporter Cells include the luciferase reporter gene functionally linked to an FXR responsive promoter. Thus, quantifying changes in luciferase expression in the treated reporter cells provides a sensitive surrogate measure of the changes in FXR activity. […] The assay is according to the manufacturer's instructions. […] Retrieve Reporter Cells from −80° C. storage. Perform a rapid thaw of the frozen cells by transferring a 10 ml volume of 37° C. cell recovery medium into the tube of frozen cells. Recap the tube of Reporter Cells and immediately place it in a 37° C. water bath for 5-10 minutes. Retrieve the tube of Reporter Cell Suspension from the water bath. Sanitize the outside surface of the tube with a 70% alcohol swab, and then transfer it into the cell culture hood. Dispense 90 μl of cell suspension into each well of the 96-well Assay Plate. Transfer the plate into 37° C. incubator, allowing the cells adherent to the bottom of the well. Dilute compounds in Dilution Plate (DP), and administrate to cells at Assay Plate (AP). DMSO content of the samples was kept at 0.2%. Cells were incubated for additional 22 hours before luciferase activities were measured. Thirty minutes before intending to quantify FXR activity, remove Detection Substrate and Detection Buffer from the refrigerator and place them in a low-light area so that they may equilibrate to room temperature. Remove the plate's lid and discard all media contents by ejecting it into an appropriate waste container. Gently tap the inverted plate onto a clean absorbent paper towel to remove residual droplets. Cells will remain tightly adhered to well bottoms. Add 100 μl of luciferase detection reagent to each well of the assay plate. Allow the assay plate to rest at room temperature for at least 5 minutes following the addition of LDR. Set the instrument (Envision) to perform a single 5 second “plate shake” prior to reading the first assay well. Read time may be 0.5 second (500 mSec) per well.

Row | EC50 [nM] | Efficacy (%) | Compound
1 | 100 to 1000 | 116 | CC(C)c1onc(-c2c(Cl)cccc2Cl)c1COc1ccc2cc(-c3cccc(C(=O)NS(=O)(=O)N(C)C)c3)sc2c1 [Example 318]
2 | 1000 to 10000 | 132 | CC(C)c1onc(-c2c(Cl)cccc2Cl)c1COc1ccc2cc(-c3cccc(C(=O)NS(=O)(=O)c4ccc(C(C)(C)C)cc4)c3)sc2c1 [Example 312]
3 | 100 to 1000 | 220 | CC(C)c1onc(-c2c(Cl)cccc2Cl)c1COc1ccc2cc(-c3cccc(C(=O)O)c3)sc2c1 [Compound (1), reference compound]
4 | 100 to 1000 | 190 | CC(C)c1onc(-c2c(Cl)cccc2Cl)c1COc1ccc2cc(-c3cccc(C(=O)NS(=O)(=O)C4CC4)c3)sc2c1 [Example 303]
